Here are results for five compounds from patent publication US20130053320A1, “TREATMENT OF ANEMIA BY ADNP AND ADNF POLYPEPTIDES” (Ramot at Tel-Aviv University, Ltd., priority 2010, published 2013).

Data set [1] deals with MEL cells. The data set is described as follows: MEL cell erythroid differentiation, marker mRNA by Real-Time PCR. The format is cell-based, mouse. As to the method:
MEL cells were a gift from Prof. N. Shaklai (Tel Aviv University, Israel). Cells were cultured at 37° C. in 5% CO2 incubator in RPMI-1640 medium supplemented with 10% fetal calf serum, 2 mM L-glutamine, 100 U/ml penicillin, 0.1 mg/ml streptomycin and 12.5 U/ml nystatin (Biological Industries, Beit Haemek, Israel). To induce erythroid differentiation, 2% DMSO (v/v, Sigma, St. Louis, Mo., USA) was added for 4 days.
2 ADNP shRNA clones (sh68 and sh71, Sigma) were used for mouse ADNP (NM_009628) silencing in MEL cells, as before (Mandel et al., 2008, J Mol Neurosci 35, 127-141). […] For mouse ADNP2 (NM_175028) silencing, a mixture of 2 stealth small interfering RNA (siRNA) duplexes (Invitrogen, Carlsbad, Calif., USA) was used.
Transfections were performed using Lipofectamine-2000 (Invitrogen). 6 hours after transfection, 2% DMSO was added to the cells for 4 days in order to induce erythroid differentiation. On the 4th day, cells were harvested, RNA was extracted and expression levels of ADNP, ADNP2, band3, β-globin, Brg1 and c-kit were evaluated.
Total RNA from MEL cells was extracted by the RNeasy Plus Mini Kit (Qiagen, Hilden, Germany). RNA integrity was determined by fractionation on 1% agarose gel and staining with ethidium bromide. RNA quantity (OD260) was determined by NanoDrop spectrophotometer (NanoDrop Technologies, Wilmington, Del., USA).
Samples with the same amount of total RNA were used to synthesize single-strand cDNA employing the Applied Biosystems High Capacity cDNA Reverse Transcription Kit (Applied Biosystems, Foster City, Calif., USA) and random hexamers primers as before (Dresner et al., 2010, supra). Primer pairs (see Table 1) were designed using the primer 3 web interface (website: frodo.wi.mit.edu/primer3/) and synthesized by Sigma-Genosys (The Woodlands, Tex., USA). To avoid amplification of contaminating genomic DNA, primers were designed to exon-exon junction. […]
Background: Real-time PCR tracks product formation cycle by cycle.

The test system of data set [2] is MEL cells. In words: Growth of MEL cells during differentiation (viable cell counts). Conditions: 2% DMSO vs ND cells. Type of data set: cell-based, mouse. As to the method:
FIG. 4: ADNP and ADNP2 are required for mouse erythroid differentiation. (A-C) MEL cells were differentiated with 2% DMSO for 4 days and compared to non-differentiated (ND) cells incubated for the same time period. Results are means±S.E.M analyzed by student's t-test (*p<0.05, **p<0.01, ***p<0.001). (A) The picture depicts the red pellet (Hb) of differentiated (D) cells compared to the white pellet of ND cells. (B) mRNA expression levels of β-globin, band3 and c-kit in D versus ND MEL cells. 4 experiments were performed, each in duplicates. Data is presented in logarithmic scale as fold change from the expression level in the ND state. (C) Growth curves of D and ND MEL cells. Results are % of the number of cells at plating (100%). […] Real-Time PCR analysis determined ADNP, ADNP2, β-globin, band3 and c-kit expression levels. […] Results, means±S.E.M were analyzed using student's t-test (*p<0.05, **p<0.01, ***p<0.001, relative to control cells, transfected with non-specific shRNA/siRNA sequences). (F+G) MEL cells were transfected with ADNP/ADNP2 shRNA/siRNA respectively, and viable cells were counted every 24 hrs during 4 days differentiation process with 2% DMSO. […] Results are presented as % from the number of cells at plating (100%), and analyzed using student's t-test (**p<0.01, relative to number of control cells, transfected with non-specific siRNA or shRNA sequences). […]

Data set [3] has as its system zebrafish embryos. The data set is described as follows: Morpholino knockdown in zebrafish embryos, observation of blood and morphology. Type of data set: in vivo. Conditions: for morphology and development: MO-injected embryos vs control; for cardiac edema / smaller head and eyes: MO-injected embryos; for smaller head and eyes: FIG. 2C; for blood colour: at 72 hpf, vs red blood of control embryos; for blood cells in circulation: starting from 28 hpf, vs control-MO injected embryos. As for the experimental part: (§1) Gene knockdown experiments were performed using morpholino-modified antisense oligonucleotides (MO's, Gene Tools, Philomath, Oreg., USA). MO's were injected into wild type embryos, immediately after fertilization (2 nl, 1-2 mM). This was followed by a daily monitoring of the embryos for 10 days. MO's sequences were chosen through the Gene Tools oligonucleotide design service. A splicing MO, directed to intron3-exon4 boundary, was designed to block adnp1a (adnp1a-MO, 5′-[…]-3′). The efficiency of the adnp1a splicing MO was evaluated by RT-PCR. Translation MO's were designed to block adnp1b, adnp2a and adnp2b (adnp1 b-MO, 5′-[…]-3′; adnp2a-MO: 5′-[…]-3′; adnp2b-MO: 5′-[…]-3′). BLAST analysis was performed to verify that the MO's were not predicted to bind gene sequences other than their targets, and that their target sequence was not conserved among the other zebrafish adnp1 and adnp2 genes. Gene-Tools standard control-MO, which has not been reported to have other targets or generate any phenotypes, was used as a negative control (5-[…]-3′). Injections were repeated in at least 4 independent experiments for each MO.
For adnp2a-MO injected embryos, blood circulation was evaluated at 48 hpf. For the 3 other MO's, circulation was examined at 72 hpf when red blood is easily seen. Based on observation, embryos were divided to have normal blood cells, no blood cells or hypochromic and/or fewer blood cells.

The subject of data set [4] is zebrafish embryos. The data set is described as follows: O-dianisidine staining of Hb in whole MO-injected embryos. The format is in vivo. Conditions: for O-dianisidine staining: 48 hpf, vs control embryos (legend FIG. 2F); for Hemoglobin (Hb) staining, Hb content: 48 hpf and 72 hpf. As to the method: as §1
Hb activity was detected in whole embryos by performing o-dianisidine staining as described (Iuchi and Yamamoto, 1983, J Exp Zool 226, 409-417).

Data set [5] relates to zebrafish embryos. In words: Whole-mount in situ hybridization (WMISH) of hematopoietic markers in MO-injected embryos. Type of data set: in vivo. As for the experimental part: as §1
Transcripts of sci (NM_213237), lmo2 (NM_131111), gata1 (NM_131234), band3 (NM_198338), embryonic α-globin 1 (NM_182940), lys-C(NM_139180), l-plastin (NM_131320), ikaros (NM_130986), c-myb (NM_131266), irx7 (NM_131881), flk1 (NM_131472), cmlc2 (NM_131329), adnp1a (NM_001080015), adnp1b (XM—002666474), adnp2a (NM_001098265) and adnp2b (NM_001080013) were detected by WMISH using digoxygenin (DIG) labeled antisense RNA probes at a concentration of 1 ng/μl. Transcription of RNA probes was performed from pGEM-T Easy plasmids linearized before the coding sequence, using SP6 or T7 RNA polymerases (DIG RNA labeling kit, Roche Applied Science, Penzberg, Germany). Embryos at different developmental stages were fixed overnight in 4% paraformaldehyde and stored in 100% methanol. WMISH was performed as describe (Ziv et al., 2005, supra). Fixed embryos were then placed in 70% glycerol for observation and photography using a dissecting stereoscope (SZX12, Olympus) equipped with digital camera (DP70, Olympus). In each experiment, embryos hybridized with the same probe were stained under the same conditions and for the same time period using identical microscopic and camera settings.

The mark [6] stands for this setting: 2% DMSO for 4 days vs non-differentiated cells.

Compound `C[S+](C)[O-]` [DMSO] yielded a c-kit expression lower in data set [1] (2% DMSO for 4 days vs ND cells) of 200 times. Moreover, in data set [1] (setting [6]), the “increase of band3 mRNA expression” value is reported as 10000 fold and the “increase of β-globin mRNA expression” value turned out to be 1000 fold. For the same compound, in data set [2], the “growth rate of differentiating cells” value is recorded as “significant reduction”.

“adnp2b-MO: translation-blocking morpholino to zebrafish adnp2b, 5′-ACCTTTTACTGGAAACTGGTACATG-3′ (all phosphorodiamidate morpholino (PMO))”: the morphology and development result in data set [3] is “no developmental delay or major morphological changes”. For the same compound, the morphology result in data set [3] (injection of higher doses of MO) is “distorted morphology”. For the same compound, in data set [4], the O-dianisidine staining result was “Reduced staining”.

Take “adnp1a-MO: splicing morpholino antisense oligonucleotide to intron3-exon4 boundary of zebrafish adnp1a, 5′-TAGTCCTGCAACATTTGAGAAACCA-3′ (all phosphorodiamidate morpholino (PMO))”: in data set [3], the cardiac edema entry is “visible in some embryos”; the morphology and development result was “developmental delay, distorted tail morphology”; the “smaller head and eyes” value is listed as 73 % of embryos; the blood colour result was “hypochromic”. Moreover, the “blood cells in circulation” value in data set [3] is “fewer blood cells in circulation”. For the same compound, in data set [4], the “Hemoglobin (Hb) staining, Hb content” value is recorded as “significant reduction in Hb content” and the O-dianisidine staining entry was “Reduced staining”.

In the case of “adnp1b-MO: translation-blocking morpholino to zebrafish adnp1b, 5′-TTGTTCACTGGGAGTTGAAACATTC-3′ (all phosphorodiamidate morpholino (PMO))”, in data set [3], the cardiac edema result is listed as “visible in some embryos”; the morphology and development entry was “developmental delay, distorted tail morphology”; the “smaller head and eyes” value is on record as 92 % of embryos; the blood colour entry is reported as “hypochromic”. Moreover, the “blood cells in circulation” value in data set [3] is reported as “fewer blood cells in circulation”. In data set [4], the “Hemoglobin (Hb) staining, Hb content” value was “significant reduction in Hb content” and the O-dianisidine staining result is “Reduced staining”.

As for “adnp2a-MO: translation-blocking morpholino to zebrafish adnp2a, 5′-CACTGGAATCTGATACATTTTGCTC-3′ (all phosphorodiamidate morpholino (PMO))”, in data set [3], the cardiac edema result is reported as “noticeable cardiac edema”; the morphology and development entry is “no effect on the overall morphology”. In addition, the blood cells visible result in data set [3] (between 33-48 hpf) is “no blood cells were evident”. In data set [4], the “Hemoglobin (Hb) staining, Hb content” value is given as “totally negative” and the O-dianisidine staining entry is reported as “No staining is visible”. Moreover, in data set [5] (4 dpf), the “ectopic expression of band3 along the tail and yolk sinus” value is 100 % of embryos; the “ectopic expression of gata1 along the tail and yolk sinus” value is 86 % of embryos. In addition, in data set [5] (17-19 hpf), the “gata1 expression normal in the ICM” value is 100 % of embryos, the “lmo2 expression intact in the ICM” value is given as 100 % of embryos and the “scl expression intact in the ICM” value was 100 % of embryos. In data set [5] (28 hpf), the “band3 expression almost absent” value is 83 % of embryos, the “embryonic α-globin 1 expression significantly reduced” value was 96 % of embryos, the “gata1 expression dramatically reduced” value is recorded as 90 % of embryos and the l-plastin expression intact is 100 % of embryos. Further, the lys-C expression intact in data set [5] (28 hpf) is reported as 100 % of embryos. In data set [5] (48 hpf), the “band3 expression almost absent” value is given as 97 % of embryos.
